Active and inactive are the calls of the source. The rule behind the calls is not given here.
Assays:
RT2 [1] = test: Induction of apoptosis in rat RT2 cells expressing wild type p53 protein assessed as cell membrane morphological changes at 100 uM after 48 hrs by phase contrast microscopy; format: functional, cell-based
T98 [2] = test: Induction of apoptosis in human T98 cells expressing mutant p53 protein assessed as cell membrane morphological changes at 100 uM after 48 hrs by phase contrast microscopy; format: functional, cell-based
RT2 [3] = test: Induction of apoptosis in rat RT2 cells expressing wild type p53 protein assessed as DNA fragmentation at 100 uM after 48 hrs using DAPI staining by UV/fluorescence microscopy; format: functional, cell-based
T98 [4] = test: Induction of apoptosis in human T98 cells expressing mutant p53 protein assessed as DNA fragmentation at 100 uM after 48 hrs using DAPI staining by UV/fluorescence microscopy; format: functional, cell-based
[5] = Cytotoxicity against rat RT2 cells expressing wild type p53 protein after 48 hrs by MTT assay; format: functional, cell-based; conditions: RT2, 48 h
[6] = Cytotoxicity against human T98 cells expressing mutant p53 protein after 48 hrs by MTT assay; format: functional, cell-based; conditions: T98, 48 h
[7] = Toxicity in human RBC membrane assessed as hemolysis after 1 hr by spectrophotometry; format: cell-based, Erythrocyte; conditions: red blood cells (RBC membrane)

Row | Compound | Activity (RT2 [1]) | Activity (T98 [2]) | Activity (RT2 [3]) | Activity (T98 [4]) | IC50 [5] | IC50 [6] | IC50 at 1 hr [7]
1 | CNC(=S)N/N=C(\N)c1ccccn1 | Active | Active | Active | Active | 12.2 µM | 32 µM | > 1000 µM
2 | CCNC(=S)N/N=C(\N)c1ccccn1 |  |  |  |  | 359 µM | 143 µM | > 1000 µM
3 | NC(=S)N/N=C(\N)c1ccccn1 |  |  |  |  | 7.28 µM | 3.6 µM | > 1000 µM
